Measurements: patent US20210213104A1, “GLUCAGON AND GLP-1 CO-AGONISTS FOR THE TREATMENT OF CHRONIC KIDNEY DISEASE AND DIABETIC KIDNEY DISEASE IN TYPE 2 DIABETES” (MEDIMMUNE LIMITED, priority 2020, published 2021)
Marks after values point to notes of the source that are not given here.

System: subjects with T2DM and renal impairment
Assay: Phase 2a: continuous glucose monitoring (CGM)
Format: in vivo, human
Details: for Percentage of Time CGM Glucose Within Target Range (70-180 mg/dL), Mean / Percentage of Time CGM Glucose Within Target Range (70-180 mg/dL), Median / Time in target range, Change from Baseline (Days −8 to −2), Mean / Time in target range, Change from Baseline (Days −8 to −2), Median / Time in target range, Difference in LS Mean Change (vs Placebo): 300 μg Dose (Days 26 to 32); for Percentage of Time CGM Glucose Within Target Range (70-180 mg/dL), Mean / Percentage of Time CGM Glucose Within Target Range (70-180 mg/dL), Median / Time in target range, Change from Baseline (Days −8 to −2), Mean / Time in target range, Change from Baseline (Days −8 to −2), Median / Time in target range, Difference in LS Mean Change (vs Placebo) / Percentage of time spent in CGM glucose range 70-180 mg/dL during treatment / Percentage of time spent in CGM glucose range >180 mg/dL during treatment: ITT; for Percentage of time spent in CGM glucose range 70-180 mg/dL during treatment / Percentage of time spent in CGM glucose range >180 mg/dL during treatment: entire dosing period
Description: Cotadutide was titrated from 50 μg up to 300 μg and administered once daily by subcutaneous (SC) injection over 32 days.
Cotadutide was administered at 50 μg once daily for 4 days, followed by 100 μg daily for 7 days, 200 μg daily for 7 days, and 300 μg daily for 14 days (n=20). Placebo was administered one daily for 32 days (n=20). Cotadutide and placebo were administered in the morning. Dosing commenced following predose baseline vital signs, blood tests (including HbA1c), an electrocardiogram (ECG), body weight measurement, and bioimpedance spectroscopy (BIS). Subjects then returned for daily dosing or remained overnight locally until Day 5, and thereafter, had visits at weekly intervals until a maintenance dose of 300 μg was established. Thus, Cotadutide or placebo was administered at the study site by study personal for the first four doses and on site on Days 5, 12, 19, and 32. At all other times, subjects preformed dosing at home.
A Freestyle Libre® Pro CGM device was used to measure interstitial glucose levels. […] Data generated by CGM was used at visits to adjust insulin doses and other treatments.
The CGM sensor, which is a small plastic circular device of 35 mm diameter and 5 mm depth, was applied to the back of the upper arm. Subjects wore the CGM sensor continuously up until the time of a sensor change, which was to occur within 14 days, and they were advised that they could bathe and shower, and swim in up to 3 m depth for up to 30 minutes while wearing the CGM sensor. When the CGM sensor was removed, a new CGM sensor could be reapplied, ideally close to the original site, but with the subject's site preference taken into account. CGM sensors were single-use only.
If a subject was unable to tolerate wearing the CGM sensor for the entire duration of the study, the sensor was removed; but the subject was to remain in the study with or without continued CGM and could instead be instructed to monitor capillary plasma glucose measurements four times per day (before meals and before bedtime) and record these levels in the diary provided.
Subjects underwent continuous glucose monitoring (CGM) starting from Day −14 to Day 40 (±5 days), with sensor changes within 14-day intervals. CGM readings were used to analyze change in average CGM glucose and glucose AUC7 d, coefficient of variation as a marker of glycemic variability, and time spent in target glucose range and hypoglycemia, to enable comparison across different dose levels.

## CCCCCCCCCCCCCCCC(=O)N[C@@H](CCC(=O)NCCCC[C@H](NC(=O)[C@H](CC(=O)O)NC(=O)[C@H](CO)NC(=O)[C@@H](NC(=O)[C@H](Cc1ccccc1)NC(=O)[C@@H](NC(=O)CNC(=O)[C@H](CCC(N)=O)NC(=O)[C@H](CO)NC(=O)[C@@H](N)Cc1c[nH]cn1)[C@@H](C)O)[C@@H](C)O)C(=O)N[C@@H](CO)C(=O)N[C@@H](CCC(=O)O)C(=O)N[C@@H](Cc1ccc(O)cc1)C(=O)N[C@@H](CC(C)C)C(=O)N[C@@H](CC(=O)O)C(=O)N[C@@H](CO)C(=O)N[C@@H](CCC(=O)O)C(=O)N[C@@H](CCCNC(=N)N)C(=O)N[C@@H](C)C(=O)N[C@@H](CCCNC(=N)N)C(=O)N[C@@H](CC(=O)O)C(=O)N[C@@H](Cc1ccccc1)C(=O)N[C@H](C(=O)N[C@@H](C)C(=O)N[C@@H](Cc1c[nH]c2ccccc12)C(=O)N[C@@H](CC(C)C)C(=O)N[C@@H](CCC(=O)O)C(=O)N[C@@H](C)C(=O)NCC(=O)NCC(=O)O)C(C)C)C(=O)O [Cotadutide]
Insulin Dose < 20 U/day
  Percentage of Time CGM Glucose Within Target Range (70-180 mg/dL), Mean: 89.31%
  Percentage of Time CGM Glucose Within Target Range (70-180 mg/dL), Median: 95.35%
  Time in target range, Change from Baseline (Days −8 to −2), Mean: 25.61%
  Time in target range, Change from Baseline (Days −8 to −2), Median: 23.18%
  Time in target range, Difference in LS Mean Change (vs Placebo): 56.7%
  Percentage of time spent in CGM glucose range 70-180 mg/dL during treatment: 89.85* %
  Percentage of time spent in CGM glucose range >180 mg/dL during treatment: 3.31%
Insulin Dose < 20 U/day, listed as MEDI0382
  Time in target range, Difference in LS Mean Change (vs Placebo): 56.73%
Insulin Dose ≥ 20 U/day
  Percentage of Time CGM Glucose Within Target Range (70-180 mg/dL), Mean: 71.69%
  Percentage of Time CGM Glucose Within Target Range (70-180 mg/dL), Median: 83.04%
  Time in target range, Change from Baseline (Days −8 to −2), Mean: 8.44%
  Time in target range, Change from Baseline (Days −8 to −2), Median: 13.31%
  Time in target range, Difference in LS Mean Change (vs Placebo): 19.6%
  Percentage of time spent in CGM glucose range 70-180 mg/dL during treatment: 73.09* %
  Percentage of time spent in CGM glucose range >180 mg/dL during treatment: 14.09* %
Insulin Dose ≥ 20 U/day, listed as MEDI0382
  Time in target range, Difference in LS Mean Change (vs Placebo): 19.59%
Total
  Percentage of Time CGM Glucose Within Target Range (70-180 mg/dL), Mean: 78.18%
  Percentage of Time CGM Glucose Within Target Range (70-180 mg/dL), Median: 83.51%
  Time in target range, Change from Baseline (Days −8 to −2), Mean: 14.50%
  Time in target range, Change from Baseline (Days −8 to −2), Median: 18.31%
  Time in target range, Difference in LS Mean Change (vs Placebo): 36.02%
  Percentage of time spent in CGM glucose range 70-180 mg/dL during treatment: 78.67%
  Percentage of time spent in CGM glucose range >180 mg/dL during treatment: 10.50%
300 μg [Days 19 to 25], all subjects
  Time in target range, difference in LS mean change as compared to placebo: 35.23%
At the 50 μg dose
  mean CGM glucose value: 133.7 mg/dL
At the 100 μg dose
  mean CGM glucose value: 127.6 mg/dL
At the 200 μg dose
  mean CGM glucose value: 131.7 mg/dL
At the 300 μg dose (Days 26 to 32)
  mean CGM glucose value: 125.4 mg/dL
Based on LS mean change
  Total glucose over each dosing period (AUC7 d) from baseline (Days −8 to −2) as compared to placebo: significantly decreased
Baseline to the end of each 7-day dosing period
  LS mean change in coefficient of variation of glucose vs placebo: no statistically significant difference
Total, listed as MEDI0382
  Percentage of time spent in CGM glucose range 70-180 mg/dL during treatment: 78.67* %
  Percentage of time spent in CGM glucose range >180 mg/dL during treatment: 10.50* %
In vivo
  percentage of time spent below 54 mg/dL vs Placebo: statistically significant greater percentage of time
  percentage of time spent below 54 mg/dL vs placebo: no clinically significant difference vs placebo
  time spent in hypoglycemia (<70 mg/dL) vs placebo, 7-day periods: no statistically significant differences
P ≤0.003, based on LS mean change
  Average glucose levels from baseline to the end of each 7-day dosing period compared to placebo: significant reductions
